Source: doi:10.1101/2024.11.15.623779v1 (biorxiv, 2024)

Target: T1, GCase (Cerezyme) (Homo sapiens, UniProt P04062, R534H)
T1 sequence (P04062 40-536 R534H): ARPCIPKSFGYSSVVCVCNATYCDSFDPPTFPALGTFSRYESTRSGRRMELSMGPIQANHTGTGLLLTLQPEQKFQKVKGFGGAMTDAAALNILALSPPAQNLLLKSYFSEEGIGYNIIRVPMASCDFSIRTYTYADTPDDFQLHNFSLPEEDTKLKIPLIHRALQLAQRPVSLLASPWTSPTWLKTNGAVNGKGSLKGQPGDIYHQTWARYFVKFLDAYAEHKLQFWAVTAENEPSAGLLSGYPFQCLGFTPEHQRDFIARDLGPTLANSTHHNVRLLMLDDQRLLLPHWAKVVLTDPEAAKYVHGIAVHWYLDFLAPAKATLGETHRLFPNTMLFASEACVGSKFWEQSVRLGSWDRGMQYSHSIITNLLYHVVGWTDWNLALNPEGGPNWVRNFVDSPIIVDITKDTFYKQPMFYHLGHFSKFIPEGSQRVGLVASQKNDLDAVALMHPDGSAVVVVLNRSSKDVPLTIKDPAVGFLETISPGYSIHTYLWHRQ
Assay: SPR, immobilized GCase on CM5 chip
Assay type: binding
Conditions: pH […] HEPES, […] EDTA, […] NaCl, […] Tween-20; no IFG; allosteric

| Kd [µM] | Substance |
| --- | --- |
| 17 to 24 | GT-02287 |
| > 90 | GT-02329 |
